Laboratory results: patent US9227971B2, “Pyrazolo[1,5-a]pyrimidine compounds as mTOR inhibitors” (Merck Sharp & Dohme Corp., priority 2010, dated 2016)
Read-outs that look alike come from different tables or passages of the source.

Experiments:
[1] = tested on: phosphorylated AKT Ser473 (pAKT S473), mTORC2 activity, PC3 cells; assay: mTOR target engagement assay, immunofluorescent cell-based, pAKT S473 readout (mTORC2 activity); details: Homo sapiens
Outline: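 After blocking, cells were stained overnight at 4 °C with anti-pAKT S473 antibody, then a fluorescent secondary; inhibition was read as reduced fluorescence intensity.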

[2] = tested on: phosphorylated 4E-BP1 Thr37/46 (p4E-BP1 Thr37/46), mTORC1 activity, PC3 cells; assay: mTOR target engagement assay, immunofluorescent cell-based, p4E-BP1 Thr37/46 readout (mTORC1 activity); details: Homo sapiens, read-out: p4E-BP1 Thr37/46 IC50
Outline: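 Read-out is fluorescence intensity of immunostained p4E-BP1 Thr37/46 in fixed PC3 cells, fitted to a logistic curve for IC50 with DMSO-only wells as top. Cells had been exposed to serial compound dilutions for ninety minutes at 37° C in 5% FBS medium with 0.25% DMSO.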

[3] = PC-3, PC3 cells, compound treatment ninety minutes at 37° C.

Row | SMILES | IC50 ([1]; PC-3, Table 3-1, PC3 cells) [nM] | IC50 ([2]; PC-3, Table 3-1, PC3 cells) [nM] | IC50 [1, 3] [nM] | IC50 [2, 3] [nM] | also measured
1 | Cc1ccc(-c2ccc(-c3cnn4c(N)c(S(C)(=O)=O)c([C@@H]5C[C@H]6CC[C@@H](C5)N6C(=O)c5nnc[nH]5)nc34)cn2)cc1F [Compound 3.45, ((1R,3s,5S)-3-(7-amino-3-(6-(3-fluoro-4-methylphenyl)pyridin-3-yl)-6-(methylsulfonyl)pyrazolo[1,5-a]pyrimidin-5-yl)-8-azabicyclo[3.2.1]octan-8-yl)(4H-1,2,4-triazol-3-yl)methanone] | 1 to 100 | 1 to 100 |  |  | 
2 | CC(=O)c1c([C@@H]2C[C@H]3CC[C@@H](C2)N3C(=O)c2nnc(N)[nH]2)nc2c(-c3ccc(C(N)(C(F)(F)F)C(F)(F)F)nc3)cnn2c1N [Compound 7.83] |  |  |  |  | IC50 ([1]; PC-3, PC3 cells): 1000 to 10000 nM; IC50 ([2]; PC-3, PC3 cells): 100 to 1000 nM
3 | COc1cc(F)c(-c2ccc(-c3cnn4c(N)c(C5CC5)c([C@@H]5C[C@H]6CC[C@@H](C5)N6C(=O)c5nnc[nH]5)nc34)cn2)cc1F [Compound 4.12, ((1R,3a,5S)-3-(7-amino-6-cyclopropyl-3-(6-(2,5-difluoro-4-methoxyphenyl)pyridin-3-yl)pyrazolo[1,5-a]pyrimidin-5-yl)-8-azabicyclo[3.2.1]octan-8-yl)(4H-1,2,4-triazol-3-yl)methanone] |  |  | 1 to 100 | 1 to 100 | 
4 | Cn1ccc(-c2ccc(-c3cnn4c(N)c(S(C)(=O)=O)c([C@@H]5C[C@H]6CC[C@@H](C5)N6C(=O)c5cn[nH]n5)nc34)cn2)n1 [Compound 3.174, ((1R,3s,5S)-3-(7-amino-3-(6-(1-methyl-1H-pyrazol-3-yl)pyridin-3-yl)-6-(methylsulfonyl)pyrazolo[1,5-a]pyrimidin-5-yl)-8-azabicyclo[3.2.1]octan-8-yl)(2H-1,2,3-triazol-4-yl)methanone] | 100 to 1000 | 100 to 1000 |  |  | 
5 | CS(=O)(=O)c1c([C@@H]2C[C@H]3CC[C@@H](C2)N3C(=O)c2nnc[nH]2)nc2c(-c3ccc(-c4ccc(F)cc4F)nc3)cnn2c1N [Compound 3.108, ((1R,3s,5S)-3-(7-amino-3-(6-(2,4-difluorophenyl)pyridin-3-yl)-6-(methylsulfonyl)pyrazolo[1,5-a]pyrimidin-5-yl)-8-azabicyclo[3.2.1]octan-8-yl)(4H-1,2,4-triazol-3-yl)methanone] | 1 to 100 | 1 to 100 |  |  | 
6 | Nc1n[nH]cc1C(=O)N1[C@@H]2CC[C@H]1C[C@H](c1nc3c(-c4ccc(-c5ccccc5)nc4)cnn3c(N)c1C1CC1)C2 [Compound 4.30, (3-amino-1H-pyrazol-4-yl)((1R,3s,5S)-3-(7-amino-6-cyclopropyl-3-(6-phenylpyridin-3-yl)pyrazolo[1,5-a]pyrimidin-5-yl)-8-azabicyclo[3.2.1]octan-8-yl)methanone] |  |  | 1 to 100 | 100 to 1000 | 
7 | Nc1cc([C@@H]2C[C@H]3CC[C@@H](C2)N3C(=O)c2nnc[nH]2)nc2c(-c3ccc(-c4ccc(C(F)(F)F)cc4F)nc3)cnn12 [Compound 2.17, ((1R,3s,5S)-3-(7-amino-3-(6-(2-fluoro-4-(trifluoromethyl)phenyl)pyridin-3-yl)pyrazolo[1,5-a]pyrimidin-5-yl)-8-azabicyclo[3.2.1]octan-8-yl)(4H-1,2,4-triazol-3-yl)methanone] |  |  | 1000 to 10000 | 1000 to 10000 | 
8 | COCCOCc1ccc(-c2cnn3c(N)c(S(C)(=O)=O)c([C@@H]4C[C@H]5CC[C@@H](C4)N5C(=O)c4nnc[nH]4)nc23)cn1 [Compound 7.32, ((1R,3s,5S)-3-(7-amino-3-(6-((2-methoxyethoxy)methyl)pyridin-3-yl)-6-(methylsulfonyl)pyrazolo [1,5-a]pyrimidin-5-yl)-8-azabicyclo[3.2.1]octan-8-yl)(4H-1,2,4-triazol-3-yl)methanone] |  |  | > 10000 | 1000 to 10000 | 
9 | CC(=O)c1c([C@@H]2C[C@H]3CC[C@@H](C2)N3C(=O)CO)nc2c(-c3ccc(-c4cc(F)cc(F)c4)nc3)cnn2c1N [Compound 1.1.101, 1-((1R,3r,5S)-3-(6-acetyl-7-amino-3-(6-(3,5-difluorophenyl)pyridin-3-yl)pyrazolo[1,5-a]pyrimidin-5-yl)-8-azabicyclo[3.2.1]octan-8-yl)-2-hydroxyethanone] |  |  | 100 to 1000 | 100 to 1000 | 
